Series [1] concerns breast cancer cell line MX-1. Put plainly: MX-1 cell line proliferation assay. Format: cell-based. The conditions noted are these: Homo sapiens, MX1; MX-1 cells, 3-day (72 h) proliferation, Cell Titer Glo; read-out: Cellular proliferation: EC50. The procedure, abridged: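 MX-1 breast cancer cells (5000/well, RPMI 1640 + 10% FBS) adhered overnight, then got compound at final 3 μM down to 0.0001 μM (3-fold series) for a 3-day assay at 37 °C. Read-out: CellTiter-Glo luminescence normalized to DMSO; EC50 from sigmoidal fit.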

The subject of series [2] is OPM-2 human multiple myeloma cancer xenograft. The series can be described thus: Xenograft tumor growth inhibition assay (OPM-2). Format: in vivo, mice. The conditions noted are these: for % TGI: QDx21, female SCID-beige mice; for % removed from study: QDx21, removed due to morbidity or weight loss in excess of 20%. On the procedure: Xenograft Tumor Growth Inhibition Assay
The effect of compounds of the examples to inhibit the growth of OPM-2 xenograft tumors implanted in mice was evaluated. A suspension of cancer cells (5×10^6 per 0.1 mL) prepared in RPMI culture medium (Invitrogen, Carlsbad, Calif.) was diluted 1:1 with a solution of Matrigel™ (BD Biosciences, Franklin Lakes, N.J.) and inoculated subcutaneously into the right hind flank of female SCID-beige (Charles River Labs) mice. […] Administration of compound or vehicle was initiated on the day following randomization and continued for 21 days. Tumors were measured twice a week throughout the treatment period using a pair of calipers and tumor volumes were calculated according to the formula V=L×W^2/2 (V: volume, mm^3; L: length, mm. W: width, […]) Tumor growth inhibition was calculated based on the mean tumor volume measured on the first day that the mean volume of the vehicle group exceeded 2000 mm^3 according to the formula % TGI=100−mean tumor volume of treatment group/mean tumor volume of control group×100.

For series [3], the system named is LPS induced IL-6 production. Put plainly: LPS (lipopolysaccharide) induced IL-6 production mouse assay. Format: in vivo, mice. As to conditions: SCID female mice, 3 mg/kg oral 1 h before LPS 2.5 mg/kg ip, serum IL-6 2 h after LPS; p<0.05. On the procedure:
LPS (Lipopolysaccharide) Induced IL-6 Production Mouse Assay
Compounds of the Examples listed in Table 2 were assayed for their ability to inhibit LPS (lipopolysaccharide) induced IL-6 (Interleukin-6) production in mice. Fox Chase SCID® female mice (Charles Rivers Labs, 5 per group) or CD1 female mice (5 mice per group) received an intraperitoneal challenge of lipopolysaccharide (2.5 mg/kg, L2630 E. coli 0111:B4) one hour after oral administration of compounds. Mice were euthanized 2 hours after lipopolysaccharide injection, blood was removed by cardiac puncture, and then the serum harvested from the blood samples was frozen at −80° C. On the day of the assay the serum samples were brought to room temperature and then diluted 1:20 in phosphate-buffered saline containing 2% bovine serum albumin. Interleukin-6 measurements were performed using a cytokine assay from Meso Scale Discovery (Gaithersburg, Md.) for mouse serum analysis according to the manufacturer's protocol and read on a SECTOR Imager 6000 (Meso Scale Discovery, Gaithersburg, Md.) instrument. Statistical analysis was performed using Prism software (version 5.0) incorporating Dunnett's one way ANOVA. The IL-6 mean and standard deviation of the group of vehicle treated animals were compared with the IL-6 mean and standard deviation of the group treated with drug. A p value <0.05 means that there is less than a 5% probability that the mean values in the two groups are equal.

The next series deals with T1, BRD4 (BDII_E352-M457) (Homo sapiens, UniProt O60885).
T1 construct: protocol; made in house
The series can be described thus: TR-FRET bromodomain binding assay, BRD4 second bromodomain.

Another series addresses T2, BRD4 (BDI_K57-E168) (Homo sapiens, UniProt O60885).
T2 construct: BD1: amino acids K57-E168; made in house
Put plainly: TR-FRET bromodomain binding assay, BRD4 first bromodomain. As to conditions: His-tagged BD1, 100 nM Alexa647 probe; assay protocol D or F as given per row in c1; Ki calculated from IC50.

Marks after values point to notes of the source that are not given here.

`Cn1cc2c3c(c[nH]c(=O)c31)CN(c1ccc(F)cc1)c1ccc(CS(C)(=O)=O)cc1-2` [Example 4]: the EC50 in series [1] is 1.39 nM. Moreover, the “% TGI” value in series [2] (3.75 mg/kg PO) is given as 68*** %; in series [2] (7.5 mg/kg PO), 84*** %. In addition, the “% removed from study” value is given as 11% in series [2] (3.75 mg/kg PO) and 44% in series [2] (7.5 mg/kg PO). Also, the “% inhibition at 3 mg/kg (LPS induced IL-6 production)” value in series [3] was found to be 70%. In addition, the Ki at BRD4 (BDII_E352-M457) was 2.15 nM; on BRD4 (BDI_K57-E168), 0.61 nM.

As to `Cn1cc2c3c(c[nH]c(=O)c31)CN(c1ccc(F)cc1F)c1ccc(CS(C)(=O)=O)cc1-2` [Example 5], in series [1], the EC50 amounted to 3.95 nM. The results for the “% TGI” value in series [2] (2.5 mg/kg PO) and in series [2] (5.0 mg/kg PO) were 66*** % and 81*** %, respectively. For the same molecule, the “% removed from study” value in series [2] (2.5 mg/kg PO) was 0%; in series [2] (5.0 mg/kg PO), 44%. Besides, the “% inhibition at 3 mg/kg (LPS induced IL-6 production)” value in series [3] worked out at 71%. For the same molecule, the Ki on BRD4 (BDII_E352-M457) was 1.95 nM; on BRD4 (BDI_K57-E168), 1.76 nM.

Source of the values: US8980879B2 (AbbVie Inc., priority 2013, dated 2015).
